The values below come from US20010047099A1, “4-aminopicolinates and their use as herbicides” (priority 2000, published 2001).

Data set [1] relates to chickweed (Stellaria media). As to the kind of experiment: Postemergence herbicidal activity. The class given is in vivo. To be noted: Stellaria media, post-emergence, 336 h, Table 1, visual, after 2 weeks, read-out: Post-emergent % Control STEME; for pest or weed control at 125 ppm: rate 125 ppm; for pest or weed control at 250 ppm: rate 250 ppm. On the procedure: (§1) Seeds of the desired test plant species were planted in Grace-Sierra MetroMix® 306 planting mixture, which typically has a pH of 6.0 to 6.8 and an organic matter content of about 30 percent, in plastic pots with a surface area of 64 square centimeters. When required to ensure good germination and healthy plants, a fungicide treatment and/or other chemical or physical treatment was applied. The plants were grown for 7-21 days in a greenhouse with an approximate 15 hr photoperiod which was maintained at about 23-29° C. during the day and 22-28° C. during the night. Nutrients and water were added on a regular basis and supplemental lighting was provided with overhead metal halide 1000-Watt lamps as necessary. The plants were employed for testing when they reached the first or second true leaf stage.
(§2) A weighed amount, determined by the highest rate to be tested, of each test compound was placed in a 20 mL glass vial and was dissolved in 4 mL of a 97:3 v/v (volume/volume) mixture of acetone and dimethyl sulfoxide (DMSO) to obtain concentrated stock solutions. […] The concentrated stock solutions obtained were diluted with an aqueous mixture containing acetone, water, isopropyl alcohol, DMSO, Atplus 411F crop oil concentrate, and Triton X-155 surfactant in a 48.5:39:10:1.5:1.0:0.02 v/v ratio to obtain spray solutions of known concentration. The solutions containing the highest concentration to be tested were prepared by diluting 2 mL aliquots of the stock solution with 13 mL of the mixture and lower concentrations were prepared by serial dilution of the stock solution. Approximately 1.5 mL aliquots of each solution of known concentration were sprayed evenly onto each of the test plant pots using a DeVilbiss atomizer driven by compressed air pressure of 2 to 4 psi ([…]) to obtain thorough coverage of each plant. Control plants were sprayed in the same manner with the aqueous mixture. In this test an application rate of 1 ppm results in the application of approximately 1 g/Ha.
(§3) The treated plants and control plants were placed in a greenhouse as described above and watered by sub-irrigation to prevent wash-off of the test compounds. After 2 weeks the condition of the test plants as compared with that of the untreated plants was determined visually and scored on a scale of 0 to 100 percent where 0 corresponds to no injury and 100 corresponds to complete kill.

Data set [2] relates to cocklebur (Xanthium strumarium). As to the kind of experiment: Postemergence herbicidal activity. Format: in vivo. The following applies: Xanthium strumarium, post-emergence, 336 h, Table 1, visual, after 2 weeks, read-out: Post-emergent % Control XANST; for pest or weed control at 125 ppm: rate 125 ppm; for pest or weed control at 250 ppm: rate 250 ppm. Here is the method: as §1, §2, §3

The test system of data set [3] is wild buckwheat (Polygonum convolvulus). Put plainly: Postemergence herbicidal activity. The class given is in vivo. To be noted: Fallopia convolvulus, post-emergence, 336 h, Table 1, visual, after 2 weeks, read-out: Post-emergent % Control POLCO; for pest or weed control at 125 ppm: rate 125 ppm; for pest or weed control at 250 ppm: rate 250 ppm. On the procedure: as §1, §2, §3

For data set [4], the system named is morningglory (Ipomoea hederacea). As to the kind of experiment: Preemergence herbicidal activity. The following applies: Ipomoea, 504 h, Table 6 (headed Post-emergent; text: preemergence), after 3 weeks, read-out: % Control IPOHE; for pest or weed control at 560 ppm: rate 560 ppm; for pest or weed control at 280 ppm: rate 280 ppm; for pest or weed control at 70 ppm: rate 70 ppm. Format: in vivo. An excerpt:
(§4) Seeds of the desired test plant species were planted in a soil matrix prepared by mixing a loam soil (43 percent silt, 19 percent clay, and 38 percent sand, with a pH of about 8.1 and an organic matter content of bout 1.5 percent) and sand in a 70 to 30 ratio. The soil matrix was contained in plastic pots with a surface area of 113 square centimeters. When required to ensure good germination and healthy plants. a fungicide treatment and/or other chemical or physical treatment was applied.
(§5) A weighed amount, determined by the highest rate to be tested, of each test compound was placed in a 20 mL glass vial and was dissolved in 4 mL of a 97:3 v/v (volume/volume) mixture of acetone and dimethyl sulfoxide to obtain concentrated stock solutions. […] The stock solutions obtained were diluted with a 99.9:0.1 mixture of water and Tween® […] surfactant to obtain application solutions of known concentration. The solutions containing the highest concentration to be tested were prepared by diluting 2 mL aliquots of the stock solution with 15 mL of the mixture and lower concentrations were prepared by serial dilution of the stock solution. A 2.5 mL aliquot of each solution of known concentration was sprayed evenly onto the soil surface (113 sq. cm) of each seeded pot using a Cornwall 5.0 mL glass syringe fitted with a TeeJet TN-3 hollow cone nozzle to obtain thorough coverage of the soil in each pot. Control pots were sprayed in the same manner with the aqueous mixture.
(§6) The treated pots and control pots were placed in a greenhouse maintained with an approximate 15 hr photoperiod and temperatures of about 23-29° C. during the day and 22-28° C. during the night. Nutrients and water were added on a regular basis and supplemental lighting was provided with overhead metal halide 1000-Watt lamps as necessary. The water was added by top-irrigation. After 3 weeks the condition of the test plants that germinated and grew as compared with that of the untreated plants that germinated and grew was determined visually and scored on a scale of 0 to 100 percent where 0 corresponds to no injury and 100 corresponds to complete kill or no germination.

Data set [5] concerns pigweed (Amaranthus retroflexus). As to the kind of experiment: Preemergence herbicidal activity. Format: in vivo. The following applies: Amaranthus retroflexus, 504 h, Table 6 (headed Post-emergent; text: preemergence), after 3 weeks, read-out: % Control AMARE; for pest or weed control at 560 ppm: rate 560 ppm; for pest or weed control at 280 ppm: rate 280 ppm; for pest or weed control at 70 ppm: rate 70 ppm.
Description: as §4, §5, §6

Data set [6] deals with velvetleaf (Abutilon theophrasti). As to the kind of experiment: Preemergence herbicidal activity. The class given is in vivo. To be noted: Abutilon theophrasti, 504 h, Table 6 (headed Post-emergent; text: preemergence), after 3 weeks, read-out: % Control ABUTH; for pest or weed control at 560 ppm: rate 560 ppm; for pest or weed control at 280 ppm: rate 280 ppm; for pest or weed control at 70 ppm: rate 70 ppm.
Description: as §4, §5, §6

On to `O=C(O)c1nc(Cl)cc(N2CCCC2)c1Cl` [Compound 36, 4-pyrrolidino-3,6-dichloropyridine-2-carboxylic acid], for which the melting point (as a rule, the temperature of the solid-liquid transition) fell in the range of 153 to 155 °C. Further, in data set [1], the pest or weed control at 125 ppm was found to be 40%. In addition, the pest or weed control at 125 ppm in data set [2] was determined as 50%. Moreover, the pest or weed control at 125 ppm in data set [3] amounted to 80%. Further, the pest or weed control at 560 ppm in data set [4] is 80%. The pest or weed control at 560 ppm in data set [5] was 80%. Also, the pest or weed control at 560 ppm in data set [6] came to 95%.

Compound `O=C(O)c1nc(Cl)cc([N+](=O)[O-])c1Cl` [Compound 39, 4-Nitro-3,6-dichloropyridine-2-carboxylic acid] had a melting point of 192 to 193 °C. Further, in data set [1], the pest or weed control at 125 ppm is 30%. In addition, the pest or weed control at 125 ppm in data set [2] came to 85%. The pest or weed control at 125 ppm in data set [3] was found to be 90%. Further, the pest or weed control at 560 ppm in data set [4] stood at 100%. In data set [5], the pest or weed control at 560 ppm turned out to be 100%. For the same compound, the pest or weed control at 560 ppm in data set [6] amounted to 100%.

Regarding `Nc1cc(Cl)nc(C(=O)O)c1Br` [Compound 44, 4-Amino-3-bromo-6-chloropyridine-2-carboxylic acid], the melting point is 175 °C (dec.). Moreover, the pest or weed control at 125 ppm in data set [1] was 90%. Moreover, the pest or weed control at 125 ppm in data set [2] worked out at 90%. Besides, the pest or weed control at 125 ppm in data set [3] was found to be 95%. The pest or weed control at 560 ppm in data set [4] is 100%. Further, the pest or weed control at 560 ppm in data set [5] amounted to 100%. In addition, the pest or weed control at 560 ppm in data set [6] worked out at 100%.

In the case of `Nc1c(Cl)c(C(=O)O)nc(C(F)(F)F)c1Cl` [Compound 45, 4-Amino-3,5-dichloro-6-trifluoromethylpyridine-2-carboxylic acid], the melting point is 178 °C (dec.). In addition, in data set [1], the pest or weed control at 250 ppm is 0%. Also, in data set [2], the pest or weed control at 250 ppm is 90%. Also, the pest or weed control at 250 ppm in data set [3] was determined as 80%. Besides, the pest or weed control at 125 ppm in data set [4] (rate 125 ppm) stood at 100%. The pest or weed control at 125 ppm in data set [5] (rate 125 ppm) amounted to 100%. The pest or weed control at 125 ppm in data set [6] (rate 125 ppm) was 90%.

Turning to `Nc1cc(Oc2cc(Cl)cc(Cl)c2)nc(C(=O)O)c1Cl` [Compound 47, 4-Amino-3-chloro-6-(3,5-dichlorophenoxy)pyridine-2-carboxylic acid], the melting point was 196 °C. The pest or weed control at 250 ppm in data set [1] turned out to be 100%. For the same compound, the pest or weed control at 250 ppm in data set [2] came to 100%. Also, in data set [3], the pest or weed control at 250 ppm is 100%. The pest or weed control at 280 ppm in data set [4] amounted to 0%. The pest or weed control at 280 ppm in data set [5] was found to be 100%. Moreover, the pest or weed control at 280 ppm in data set [6] turned out to be 95%.

For the compound `Nc1cc(Oc2ccccc2)nc(C(=O)O)c1Cl` [Compound 48, 4-amino-3-chloro-6-phenoxypyridine-2-carboxylic acid], the melting point amounted to 178 °C. In addition, the pest or weed control at 250 ppm in data set [1] was 60%. Besides, the pest or weed control at 250 ppm in data set [2] came out at 100%. For the same compound, in data set [3], the pest or weed control at 250 ppm amounted to 100%. The pest or weed control at 280 ppm in data set [4] amounted to 100%. The pest or weed control at 280 ppm in data set [5] is 30%. The pest or weed control at 280 ppm in data set [6] worked out at 100%.

The compound `COc1ccc(Oc2cc(N)c(Cl)c(C(=O)O)n2)cc1` [Compound 49, 4-amino-3-chloro-6-(4-methoxyphenoxy)-pyridine-2-carboxylic acid] came in with a melting point of 174 °C. Besides, in data set [1], the pest or weed control at 250 ppm came out at 0%. In addition, in data set [2], the pest or weed control at 250 ppm was 60%. For the same compound, the pest or weed control at 250 ppm in data set [3] was determined as 70%. The pest or weed control at 70 ppm in data set [4] is 0%. Further, the pest or weed control at 70 ppm in data set [5] amounted to 0%. In data set [6], the pest or weed control at 70 ppm turned out to be 0%.

For `Cc1ccc(Oc2cc(N)c(Cl)c(C(=O)O)n2)cc1` [Compound 50, 4-amino-3-chloro-6-(4-methylphenoxy)-pyridine-2-carboxylic acid], the melting point amounted to 173 °C. For the same compound, the pest or weed control at 250 ppm in data set [1] is 0%. For the same compound, in data set [2], the pest or weed control at 250 ppm amounted to 60%. In data set [3], the pest or weed control at 250 ppm was 70%. For the same compound, the pest or weed control at 70 ppm in data set [4] stood at 0%. Further, in data set [5], the pest or weed control at 70 ppm was found to be 0%. For the same compound, in data set [6], the pest or weed control at 70 ppm came to 0%.

Compound `Cc1cccc(Oc2cc(N)c(Cl)c(C(=O)O)n2)c1` [Compound 52, 4-amino-3-chloro-6-(3-methylphenoxy)-pyridine-2-carboxylic acid] registered a melting point of 169 °C. For the same compound, in data set [1], the pest or weed control at 250 ppm stood at 20%. The pest or weed control at 250 ppm in data set [2] came out at 70%. Besides, the pest or weed control at 250 ppm in data set [3] is 90%. Besides, in data set [4], the pest or weed control at 560 ppm turned out to be 70%. Further, the pest or weed control at 560 ppm in data set [5] worked out at 20%. Also, the pest or weed control at 560 ppm in data set [6] was 50%.

In turn, `Nc1cc(Oc2cccc(Cl)c2)nc(C(=O)O)c1Cl` [Compound 53, 4-amino-3-chloro-6-(3-chlorophenoxy)-pyridine-2-carboxylic acid] showed a melting point of 176 °C. Moreover, the pest or weed control at 250 ppm in data set [1] was 100%. The pest or weed control at 250 ppm in data set [2] is 100%. Also, in data set [3], the pest or weed control at 250 ppm stood at 100%. Also, the pest or weed control at 560 ppm in data set [4] is 100%. In addition, the pest or weed control at 560 ppm in data set [5] is 0%. For the same compound, in data set [6], the pest or weed control at 560 ppm stood at 100%.
